Results published in patent US5141627A, “Chelators whose affinity for calcium ion is increased by illumination” (The Regents of the University of California, priority 1989, dated 1992).
Several values for one entry are separate records, joined by “and”; a condition that tells them apart may be missing. Identical values can stand only once. Like-named read-outs stand apart in the source and are kept apart here.

Tests used:
[1] = Ca2+ affinity by UV spectra during titration of EGTA or HEEDTA buffers; type: binding; details: after photolysis; Hill plot / equilibrium measurements; read-out: Kd (Ca2+) / affinity after photolysis
Experimental: The titration was done at 22° C. with 10 mL of 100 mM KCl, 10 mM K-MOPS, 10 mM K2 H.HEEDTA, and 14 […] diazo-2 as starting materials, adjusting the pH to 7.24, recording the spectrum, and then discarding 1.0 mL of this solution and replacing with 1.0 mL of 100 mM KCl, 10 mM K.MOPS, 10 mM KCa.HEEDTA, 14 μM diazo-2, readjusting the pH to 7.24, and recording the spectra, which was then in 9 mM K2H.HEEDTA. Subsequent iterations to reach n mM KCa.HEEDTA, (10-n) mM HEEDTA, n=2-10, were done by discarding 10.0/(11-n) mL and replacing with equal volumes of the 10mM KCa.HEEDTA, 14 μM diazo-2 stock. After n=10 had been reached to give free Ca^2+ between 10^-5 and 10^-4 M, addition of 1 mM CaCl2 had no further effect on the spectrum. For clarity only six spectra are including in the figure, n=0, 2, 4, 6, 8, and 10. Each spectrum is labeled with the calculated free [Ca^2+ ] imposed by the HEEDTA buffer, assuming a log effective stability constant of 5.55 at pH 7.24.
The phenylacetate was produced by irradiating a 30 μM solution of diazo-2 in 100 mM KCl, 10 mM Tris.HCl, 10 mM K2 H.HEEDTA, pH 8.40, with Spectroline lamp at 365 nm to completion. The titration was then performed as in A but the pH was maintained at 8.40, at which the calculated log effective stability is constant for HEEDTA was 6.60.
Ca^2+ -binding constants for chelators before and after photolysis were determined by monitoring UV spectra during titration of EGTA or HEEDTA buffers to varying free Ca^2+ levels.
Either the ratio of, for example, [Ca.EGTA] to free [EGTA] was adjusted at a constant pH, or the pH was varied while [Ca.EGTA]=[EGTA]. These two approaches gave equivalent answers for pH>7 whenever directly tested, because of the pH insensitivity of BAPTA-like ligands (see FIG. 1 legend for more details). The apparent dissociation constants of Ca.EGTA and Ca.HEEDTA were calculated as described by R. Y. Tsien (1980); see also R. Y. Tsien, et al. (1986), S. R. Adams, et al. (1980), Grynkiewicz, et al., (1985), and Jackson, et al. (1987).

[2] = Ca2+ binding kinetics of photolyzed diazo-2 by competition with HEEDTA after flash photolysis
Source text: Having determined the rate at which the high-affinity chelator was photochemically generated from diazo-2, the kinetics of Ca^2+ binding by the photolysis of diazo-2 was examined relying on the 1:1 competition between protons and Ca^2+ for the chelator HEEDTA, i.e.:
If diazo-2 is photolyzed in the presence of HEEDTA partially saturated with Ca^2+, the photo-generated Compound 3c would take some Ca^2+ away from HEEDTA. The newly freed HEEDTA would then take up some protons and lead to an alkalinization of the sample. The shift in Ca^2+ -binding equilibrium is thus visualized with an indicator like cresol red. Control experiments indicate that at HEEDTA buffer concentrations ≥2 mM, the intrinsic kinetics of the Ca^2+ -HEEDTA equilibrium was no longer limiting the speed of the final alkalinization.
It is noted that the solution first acidified owing to the formation and dissociation of the product carboxylic acid, but subsequently began realkalinizing as the newly formed product chelator competed with HEEDTA for Ca^2+. The time constant of the realkalinization was 2.8 ms (Table I). […]
FIG. 2B is a flash photolysis record of the kinetics of Ca^2+ uptake by photolyzed diazo-2. […] Monitoring the light transmission at 572 nm was performed as for A. Each small division of the ordinate corresponds to 3.4×10^-4 absorbance unit. […] As the photolyzed diazo-20 took Ca^2+ away from HEEDTA, the freed HEEDTA bound protons and thus alkalinized the solution, a process reflected by the increase in cresol red absorbance (i.e., decline in light transmission at 572 nm).
Kinetics of the conversion of diazo-2 and diazo-3 to the carboxylic acid products and the kinetics of Ca^2+ binding by photolyzed diazo-2 were measured by flash photolysis and pH monitoring. […]

[3] = acid-base indicator; cited from earlier work
[4] = Mg.EGTA incl. monoprotonated form, pH 7.60, 0.1M ionic strength; assumed; read-out: apparent dissociation constant for Mg complex; cited from earlier work
[5] = cited from earlier work
cells = details: photolyzed in cells; cited from earlier work

Cc1ccc(N(CC(=O)O)CC(=O)O)c(OCCOc2cc(CC(=O)O)ccc2N(CC(=O)O)CC(=O)O)c1 [Compound 3c]
Kd [1]: ~73 nM and 73 nM | time constant of realkalinization ([2]; 70 μM diazo-2, 2 mM HEEDTA half-saturated with Ca2+, free [Ca2+] 377 nM): 2.8 ms | koff, unimolecular rate constant for dissociation of Ca2+ complex ([2]; photolyzed diazo-2): 58 s⁻¹ | kon, bimolecular rate constant for binding of Ca2+ ([2]; photolyzed diazo-2): 8e+08 M⁻¹ s⁻¹

Cc1cc(C2(c3ccc(O)c(C)c3)OS(=O)(=O)c3ccccc32)ccc1O [Cresol red]
pKa [3]: 8.2

O=C(O)CN(CCOCCOCCN(CC(=O)O)CC(=O)O)CC(=O)O [EGTA, ethylenebis(oxyethylenenitrilo)tetraacetic acid]
Kd [4]: 6 mM

Cc1ccc(N(CC(=O)O)CC(=O)O)c(OCCOc2cc(-c3c4cc(Cl)c(=O)cc-4oc4cc(O)c(Cl)cc34)ccc2N(CC(=O)O)CC(=O)O)c1 [Fluo-3]
enhancement of fluorescence quantum yield by Ca2+ binding ([5]; Ca2+ binding): about 40 fold | Kd ([5]; read-out: Kd (Ca2+) of fluorescent indicator): 400 nM

Cc1ccc(N(CC(=O)O)CC(=O)O)c(OCCOc2cc(C(O)c3cc4c(cc3[N+](=O)[O-])OCO4)ccc2N(CC(=O)O)CC(=O)O)c1 (stereo not drawn) [nitr-5]
irradiation damage on photolysis in cells (in words) (cells): without noticeable irradiation damage
